ChEMBL document CHEMBL3046928, “Skimmianine, a furoquinoline alkaloid from Zanthoxylum nitidum as a potential acetylcholinesterase inhibitor” (Med Chem Res, 2012)
Activity calls are given as the source filed them. No cut-off for these calls is given here.

How the values were obtained:
[1] = molecular target: T1, Acetylcholinesterase (Homo sapiens, UniProt P22303)
[2] = molecular target: T1, Acetylcholinesterase; details: at 0.1 mg/mL
[3] = molecular target: T1, Acetylcholinesterase; experiment: Inhibition of AChE (unknown origin) at 10 mg/ml after 20 min by TLC bioautographic assay

T1 sequence (P22303 whole entry): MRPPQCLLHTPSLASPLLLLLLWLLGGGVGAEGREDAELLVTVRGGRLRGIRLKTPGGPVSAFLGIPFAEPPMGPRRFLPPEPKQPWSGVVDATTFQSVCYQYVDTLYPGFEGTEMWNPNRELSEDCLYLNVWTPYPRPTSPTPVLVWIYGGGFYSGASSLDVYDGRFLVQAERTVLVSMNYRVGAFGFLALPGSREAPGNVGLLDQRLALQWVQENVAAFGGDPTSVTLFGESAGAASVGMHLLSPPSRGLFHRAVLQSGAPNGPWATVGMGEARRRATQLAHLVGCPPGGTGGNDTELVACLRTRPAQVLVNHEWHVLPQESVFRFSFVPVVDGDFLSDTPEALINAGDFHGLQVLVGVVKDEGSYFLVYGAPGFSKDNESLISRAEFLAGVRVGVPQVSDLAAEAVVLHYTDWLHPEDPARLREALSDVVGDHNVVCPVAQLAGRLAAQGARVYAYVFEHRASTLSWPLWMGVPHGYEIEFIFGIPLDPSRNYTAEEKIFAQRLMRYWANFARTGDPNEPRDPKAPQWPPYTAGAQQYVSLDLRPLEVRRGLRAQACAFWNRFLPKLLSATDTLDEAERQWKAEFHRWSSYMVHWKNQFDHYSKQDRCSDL

COc1cccc2c3c(c(=O)n(C)c12)[C@@H](O)[C@H](O)C(C)(C)O3 (relative stereo) [REL-ZANTHODIOLINE]
IC50 [1]: Not Active
inhibition [2]: 34.4%

COc1cc2oc(=O)ccc2c(OC)c1OC [5,6,7-TRIMETHOXYCOUMARIN]
IC50 ([1]; read-out: IC50 (converted)): > 423 µM
inhibition [2]: 49.7%

COc1c(C[C@H](C)C(C)(C)O)c(=O)n(C)c2ccccc12 [(-)-(S)-EDULININE]
IC50 [1]: Not Active
inhibition [2]: 19.4%

COc1c2ccccc2nc2occc12 [DICTAMNINE]
IC50 [1]: Not Active
inhibition [2]: 12.6%

COc1cc(=O)[nH]c2c(OC)cccc12 [EDULITINE]
IC50 ([1]; read-out: IC50 (converted)): > 487 µM
inhibition [2]: 45.1%

COc1c2ccoc2nc2c(OC)cccc12 [GAMMA-FAGARINE]
IC50 [1]: Not Active
inhibition [2]: 24.3%

COc1c2[nH]c3occc3c(OC)c-2ccc1=O [HAPLOPINE]
IC50 ([1]; read-out: IC50 (converted)): > 408 µM
inhibition [2]: 51.9%

COc1ccc(C(=O)[C@@H]2CO[C@H](c3ccc4c(c3)OCO4)[C@H]2CO)cc1OC [MAGNOLONE]
IC50 [1]: Not Active
inhibition [2]: 9.9%

COc1ccc2c(OC)c3ccoc3nc2c1OC [SKIMMIANINE]
IC50 ([1]; read-out: IC50 (converted)): 33.2 µM
inhibition [2]: 91.3%
inhibition [3]: Active

COc1cc2oc(=O)ccc2c(OC)c1C[C@@H](O)C(C)(C)O [TODDALOLACTONE]
IC50 [1]: Not Active
inhibition [2]: 33.9%
